Experimental findings from PMC5775280, “Functional Characterization and Signaling Systems of Corazonin and Red Pigment Concentrating Hormone in the Green Shore Crab, Carcinus maenas” (Frontiers in Neuroscience, 2018) are described below.

pEC50: −log10 of the molar value. Peptide text beside a SMILES is read from it.

One assay concerns semi-isolated heart. Nature of the assay: Cardioactivity on semi-isolated heart preparations. Particulars: superfusion, concentrations up to 10^−6 M, 20°C. Set-up: species or system Carcinus maenas. How it is done:
Cardioactivity of […], and ACP was performed on semi-isolated heart preparations of C. maenas. Crabs (ca. 65 mm carapace width) were ice-anesthetized and rapidly decerebrated before removing all limbs and the dorsal carapace to expose the heart and pericardial cavity. The heart was connected to a force transducer (MLT0210/A) via a micro fishing hook (size 28) and fine nylon (0.08 mm) monofilament. Connection to a PC with Chart 4.0 was via a Bridge Pod (ML301) and Powerlab 4/20 (AD Instruments Pty Ltd, Castle Hill, NSW, Australia). Transducer gain was set at maximum sensitivity (200 μV). Heart preparations were initially perfused with C. maenas physiological saline (Saver et al., [1999]) at room temperature (20°C). Once a stable heart output was achieved, hearts were firstly perfused with 1 ml saline, followed by increasing concentrations of peptides, applied in 1 ml. Crustacean cardioactive peptide (CCAP) (Bachem, Bubendorf, Switzerland), or proctolin (Sigma, Poole, UK) were positive controls (10^-11-10^-7 M). Test peptides ([…]) were perfused at 10^-8-10^-6 M for approximately 2 min at each concentration.

The nature of assay [1]: Hemolymph triglyceride levels after peptide injection. It counts as in vivo, Carcinus maenas. Particulars: mean ± 1 SEM, n = 6, SEM. How it is done:
Adipokinetic and glucose mobilizing activity of […] and ACP were performed by measurement of triglycerides in hemolymph ([…] et al., [2014]) and glucose (Chung and Webster, [1996]). Hemolymph samples (ca. 100 μl) were taken from crabs injected with each peptide at 0 and 90 min, and subsequently assayed.

In assay [2] the target is T1, C. maenas CRZR (corazonin receptor) (Carcinus maenas, UniProt A0A2L0WQE5).
T1 sequence (A0A2L0WQE5 1-617): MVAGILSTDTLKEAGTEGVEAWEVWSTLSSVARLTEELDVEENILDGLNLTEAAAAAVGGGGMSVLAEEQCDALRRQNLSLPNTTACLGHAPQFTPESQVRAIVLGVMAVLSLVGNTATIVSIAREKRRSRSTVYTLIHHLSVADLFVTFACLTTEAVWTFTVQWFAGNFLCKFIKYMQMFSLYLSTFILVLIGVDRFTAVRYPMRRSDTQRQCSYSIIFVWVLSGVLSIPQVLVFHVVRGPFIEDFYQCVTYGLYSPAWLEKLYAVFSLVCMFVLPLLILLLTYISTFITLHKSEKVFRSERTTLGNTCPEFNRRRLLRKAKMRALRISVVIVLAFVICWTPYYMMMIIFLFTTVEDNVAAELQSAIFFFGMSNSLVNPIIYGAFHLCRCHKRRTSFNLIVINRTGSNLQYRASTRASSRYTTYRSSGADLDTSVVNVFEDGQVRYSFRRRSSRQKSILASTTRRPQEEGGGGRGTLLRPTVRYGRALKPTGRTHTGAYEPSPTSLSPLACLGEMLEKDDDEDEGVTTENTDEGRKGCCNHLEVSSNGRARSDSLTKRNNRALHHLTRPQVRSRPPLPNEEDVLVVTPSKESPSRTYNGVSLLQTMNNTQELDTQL
The assay is described as follows: Aequorin luminescence Ca2+ mobilization in CHO-K1-Aeq cells transiently expressing CRZR. It counts as cell-based. On the procedure:
Chinese hamster ovary (CHO-K1) cells containing stably expressed apoaequorin (Perkin Elmer, Boston, MA) and either Gα16 or Gq subunit (control cells) were cultured in Dulbecco's Modified Eagle Medium (DMEM) F-12 Nutrient Mixture GlutaMax (Gibco®) supplemented with 10% fetal bovine serum (Gibco®). Cells were maintained in vented T75 flasks at 37°C in 5% CO2.
Cells grown in a monolayer to approximately 60% confluency in T75 flasks were transfected with pcDNA3.1 constructs using FugeneHD (Promega) according to the manufacturer's recommendations. Briefly, transfection medium was prepared by combining 800 μl Opti-MEM® (Gibco) with 10 μg vector and 30 μl Fugene HD in a 2 ml polystyrene tube and incubated for 10 min at room temperature. The transfection reagent was added to 5 ml of fresh culture media and the cells incubated overnight at 37°C in 5% CO2. After 24 h, an additional 10 ml of culture media were added to the flasks and the cells returned to 37°C at 5% CO2 for a further overnight incubation.
On the day of the assay, cells were detached from the culture flask by incubating for 12 min in 5 ml 0.2% EDTA in PBS. The cells were washed with 10 ml DMEM clear DMEM/F-12 containing L-glutamine, 15 mM HEPES and moved to 50 ml centrifuge tubes. Cells were centrifuged for 5 min at 260 g and resuspended to a concentration of 5 × 10^6 cells ml^−1 in 0.2 μm filtered BSA medium (DMEM/F-12 containing L-glutamine, 15 mM HEPES + 0.1% BSA). Coelenterazine h (Invitrogen, Paisley, UK) was added to a concentration of 5 μM and the cells incubated for 4 h in the dark at room temperature whilst gently rocking. The cells were diluted 10-fold and incubated for a further 60 min before use in the assay. Synthetic peptides (GeneCust, Dudelange, Luxembourg) were reconstituted in 30% acetonitrile, dried in small aliquots by vacuum centrifugation and subsequently redissolved in BSA medium. Fifty microliter aliquots were then dispensed into quadruplicate wells of a white 96-well plate (OptiPlate, PerkinElmer). Cell suspensions were gently stirred and injected in 50 μl aliquots into each well using a Mithras LB 940 microplate reader (Berthold Technologies, Bad-Wildbad, Germany) and light emission (Ca^2+ response) recorded for 30 s. Cells were then lysed by injection of 0.3% Triton-X in BSA medium and light emission recorded for a further 10 s to measure total Ca^2+ response. BSA medium was used for blank measurements (6 replicate wells per plate) and mock transfection with empty vectors carried out for negative controls. Data was analyzed using MikroWin v5.18 (Mikrotek Laborsysteme GmbH) and SigmaPlot v.13 (Systat Software, Inc.). Receptor response was normalized against total Ca^2+ response.

As a reminder, the pEC50 is the EC50 on a negative log10 scale, so that one unit is a factor of ten. A low value points to a large EC50. Take `CC(C)C[C@H](NC(=O)[C@@H]1CCC(=O)N1)C(=O)N[C@@H](CC(N)=O)C(=O)N[C@@H](Cc1ccccc1)C(=O)N[C@@H](CO)C(=O)N1CCC[C@H]1C(=O)NCC(=O)N[C@@H](Cc1c[nH]c2ccccc12)C(N)=O` [RPCH] (HELM PEPTIDE1{[Glp].L.N.F.S.P.G.W.[am]}$$$$V2.0): in the assay with semi-isolated heart, the “cardioacceleratory effect on semi-isolated hearts” value was “completely without cardioacceleratory effect”. The “hemolymph triglyceride levels, 0 min” value in assay [1] (injection 100 pmol per crab) is 0.14 ± 0.14 µg/µL; in assay [1] (repeat experiment, injection 10 pmol) it was 0.49 ± 0.27 µg/µL; in assay [1] (repeat experiment, injection 100 pmol), 1.65 ± 0.59 µg/µL. The “hemolymph triglyceride levels, 90 min” value is 0.86 ± 0.4 µg/µL in assay [1] (injection 100 pmol per crab, no significant change over 90 min); 0.20 ± 0.28 µg/µL in assay [1] (repeat experiment, injection 10 pmol, no significant change); 0.78 ± 0.44 µg/µL in assay [1] (repeat experiment, injection 100 pmol, no significant change). Besides, the “binding to CRZR at extremely high concentrations” value in assay [2] (0.6–20 μM) is “some dose-dependent binding”. In assay [2] (CHO-K1-Aeq cells (without Gα16) transiently expressing CRZR, luminescence response normalized to total Ca2+ response, dose response curves, means of n = 4), the pEC50 is under 4.70.
